Experimental data reported in PubChem BioAssay AID179 (DTP/NCI, 2004).
Where a SMILES comes first, the peptide text is derived from it. [ ]: non-standard residue; d: D form. The star is where a group is joined. Ac5c = NC1(C(=O)O)CCCC1; Boc = CC(C)(C)OC(=O)*; tBu = CC(C)(C)*

System: CEM cells HIV-1 protection, formazan growth assay
Experiment: NCI AIDS Antiviral Assay
Settings: for IC50: measured here: growth of uninfected CEM cells
Summary of the method: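 Screen of anti-HIV-1 activity in human CEM cells using a formazan-based growth measurement at five drug concentrations. Hits with 50% or greater protection were repeated, and confirmation required reproducible complete protection.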

SMILES | EC50 | IC50
CC(C)CC(NC(=O)CNC(=O)C(CC(C)C)NC(=O)C(Cc1c[nH]cn1)NC(=O)C(CC(N)=O)NC(=O)C(C)NC(=O)C1CCCN1C(=O)C(Cc1ccc(O)cc1)NC(=O)C1CCCN1C(=O)C(C)NC(=O)C(CCC(=O)O)NC(=O)C(CC(=O)O)NC(=O)C(Cc1ccccc1)NC(=O)C(CC(N)=O)NC(=O)C(C)N)C(=O)O (configuration not stated) (H-ANFDEAPYPANHLGL-OH; configuration not given here) | > 38 µM | > 38 µM
CC(C)COC(=O)NC1C(=O)N2C1SC(C)(C)C2C(=O)O (configuration not stated) (tested in a mixture with another compound) | 87.1 µM | > 200 µM
N#Cc1nc(CCc2nc(C#N)c(N)o2)oc1N | > 200 µM | > 200 µM
O=[N+]([O-])c1ccccc1S(=O)(=O)c1ccccc1 | 18.2 µM | 170 µM
NC(=O)CCNC(=O)c1ccccc1SC(=O)NCCBr | 1.38 µM | 10 µM
CCCCCCCCCCCc1noc2c1C(=O)CCC2 | > 24.5 µM | > 24.5 µM
CN(CCC#N)c1ccc(/C=C(\C#N)c2cccc(C(F)(F)F)c2)cc1 | > 200 µM | 3.63 µM
COC(=O)C1=C(OC)C(C(=O)OC)C23CCCC12C(C(=O)OC)C(OC)C3C(=O)OC (configuration not stated) | > 135 µM | > 135 µM
COc1ccc(-n2cnc3c(NC(C)(C)C(=O)O)ncnc32)cc1 | > 200 µM | 126 µM
Cc1ccc(S(=O)(=O)OCC2COC(C)(C)O2)cc1 (configuration not stated) | > 871 µM | > 871 µM
Cn1c(=O)c2c3ccccc3n(C)c2n(C)c1=O | > 200 µM | > 200 µM
COc1ccc2nc3cc(Cl)ccc3c(Nc3ccc(S(=O)(=O)Nc4nccs4)cc3)c2c1 | > 9.77 µM | > 9.77 µM
CC(OC(C)(C)C)C1NC(=O)C(CCCCNC(=O)OC(C)(C)C)NC(=O)C(Cc2c[nH]c3ccccc23)NC(=O)C(Cc2ccccc2)NC(=O)C2(CCCC2)NC(=O)C(Cc2ccccc2)NC1=O (configuration not stated) (cyclo([Ac5c]FWK(Boc)T(tBu)F); configuration not given here) | > 100 µM | 18.6 µM
COc1cc2occ(-c3ccc(O)c(O)c3)c(=O)c2cc1O | > 200 µM | 26.3 µM
O=C1[C@H](Cc2ccccc2)C[C@H]2CO[C@H](c3ccccc3)N12 | > 200 µM | 38.9 µM
CCc1cccc(C(C)C)c1N1C(=O)C(=O)C(c2nc3ccccc3s2)C(=O)C1=O | > 17.4 µM | > 17.4 µM

SMILES | EC50 | IC50
CC1=NN(c2ccccc2)C(=O)/C1=C\N1CC(=O)NC1=S | > 200 µM | 87.1 µM
NC(=S)NNCC(=O)CC(O)(C(F)(F)F)C(F)(F)Cl (configuration not stated) | > 200 µM | 123 µM
COC(=O)c1ccc(/C=C2\Oc3ccccc3C2=O)cc1 | > 200 µM | > 200 µM
Nc1ncnc2c1ncn2C1CCC(CO)OC1 (configuration not stated) | > 200 µM | > 200 µM
CN1CCN(C2=NCCO2)CC1 | > 200 µM | > 200 µM
C=C=CP(=O)(c1ccccc1)c1ccccc1 | > 151 µM | 15.5 µM
CN(C)c1ccc(/C=C/c2ccnc3c(O)cccc23)cc1 | > 18.2 µM | 1.05 µM
O=C1Oc2cc(O)ccc2C2OCNCC12 (configuration not stated) | > 200 µM | > 200 µM
c1ccc2c(c1)nc1nc3c(cn12)CCCC3 | > 151 µM | > 151 µM
CSc1nc(NC2OC(COC(C)=O)C(OC(C)=O)C(OC(C)=O)C2OC(C)=O)c2c(n1)OCC2=O (configuration not stated) | > 67.6 µM | > 67.6 µM
CCOC(=O)/C(F)=C/c1cccc(C)c1 | > 126 µM | > 126 µM
CC(=O)OC1C(O)C(C)OC(OC2C(OC(=O)C3CCC4C(C3)OC3(CC(OC(=O)/C=C/c5ccccc5)C(C)CO3)C43CO3)OC(C)C(O)C2OC(C)=O)C1O (configuration not stated) | > 1.55 µM | 0.0012 µM
O=C(C[C@H](NC(=O)OCc1ccccc1)C(=O)NC1Cc2ccccc2OC1=O)OCc1ccccc1 (some centres not stated) | > 200 µM | 93.3 µM
CCn1c(=S)[nH]c2sc3c(c2c1=O)CCCCC3 | > 107 µM | 21.9 µM
CC(C)(C)NC(=O)CCC(=O)O | > 200 µM | 110 µM
